Entries after “also recorded” stand apart in the source; their conditions may differ.

The term MIC denotes the lowest concentration found to suppress growth. Higher therefore signals weaker potency. By IC50 is commonly meant the concentration needed to halve the response being measured. Higher therefore signals lower potency.

Assay [1] deals with BWbacA-singleΔtolC strain. Description: Growth inhibition / MIC in 2YT liquid medium. The class given is cell-based, E. coli. The note with it: for class of antibacterial activity (Figure S2): BWΔtolC and BWbacA-singleΔtolC strains, 250 and 500 µM; for MIC: BWbacA-singleΔtolC strain; for growth inhibition: TolC/PAP2-depleted BWbacA-singleΔtolC, 500 µM compound. Here is the method:
(§1) Bacteria were grown in 2YT broth supplemented, when required, with ampicillin or kanamycin at concentrations of 100 and 50 µg/ml, respectively. The BWΔtolC strain was obtained from the Keio collection. The BWΔbacAΔtolC and BWbacA-singleΔtolC were generated by P1 transduction of the ΔtolC::Kan^R cassette from BWΔtolC strain to BWΔbacA and DMEG9 recipient strains, respectively. The strains S. aureus RN4220 and S. pneumoniae R6 were used to evaluate the antibacterial activity of certain compounds. S. aureus was grown on BHI (Brain Heart Infusion) broth and S. pneumoniae was grown on Colombia broth supplemented with 5% horse blood.
(§2) For compounds displaying inhibitory activity on BacA catalysis, their antibacterial activity was tested on different E. coli strains by monitoring bacterial growth in the presence of compounds (125, 250 and 500 µM). One colony was cultured in 10 ml of 2YT liquid medium and incubated at 37℃ for 6 h. The absorbance of the culture at 600 nm (A600) was measured to prepare a bacterial suspension in 2YT liquid medium at 15.10^6 CFU/ml (A600 = 1 corresponds to 3.10^8 CFU/ml). The bacterial suspension (200-µl) was then grown on 96-well plates in the presence or not of compounds (5-µl), which was added from a stock solution prepared in DMSO. Negative controls were then performed by growing the cells without inhibitors in 2YT medium and in 2YT medium supplemented with 2.5% of DMSO. The plates were incubated at 37℃ overnight with A600 measurements every 10 min using a Tecan F200 PRO microplate reader (iControl software).

The next assay has as its system BWΔtolC strain. Description: Growth inhibition in 2YT liquid medium (off-target activity). The class given is cell-based, E. coli. The note with it: for growth inhibition: TolC-depleted BWΔtolC; for Off-target activity: antibacterial activity against BWΔtolC. Here is the method: as §1, §2
Another assay deals with BacA (Escherichia coli, UniProt P60932). Conditions: for IC50 / BacA RA (%): 50 µM C55-PP, 5 nM BacA; for IC50: average of at least three experiments; for BacA RA (%): residual activity in the presence of 100 µM compound, 10 min 37 °C. Here is the method: C43(DE3) cells carrying pTrcBac30 plasmid were used for the expression of N-terminally His6-tagged BacA (His6-BacA) protein from E. coli. Cells were grown in 2YT-ampicillin at 37 °C and when the OD600 reached 0.9, the temperature of the culture was decreased to 22 °C and protein expression was induced by addition of 1 mM IPTG. Incubation was continued overnight at 22 °C and bacteria were harvested in the cold and washed in a buffer containing 20 mM Tris-HCl, pH 7.4, 0.4 M NaCl, 10% glycerol and 10 mM β-mercaptoethanol (buffer A). The cells were disrupted by three successive passages through a French press and the suspension was centrifuged at 200,000× g, 4 °C for 45 min. The pellet of membranes was washed with buffer A. The membranes were resuspended in buffer A supplemented by 2% DDM detergent. This mixture was incubated for 2 h at 4 °C under agitation before being centrifuged as described above. The supernatant containing solubilised membrane proteins was used for the purification of His6-BacA on Ni^2+-NTA-agarose. The supernatant was incubated overnight at 4 °C under agitation with 2 ml of Ni^2+-NTA-agarose polymer pre-equilibrated with buffer A supplemented with 10 mM imidazole and 0.2% DDM. The mixture was then transferred into a Poly-prep chromatography column (Biorad) and the polymer was washed with 50 ml of buffer A containing 0.2% DDM and successively 10 and 30 mM imidazole. The elution of BacA was then performed with buffer A containing 0.2% DDM and 400 mM imidazole. Fractions containing the BacA protein were subjected to an additional gel-filtration purification step on Superdex 200 (HiLoadTM 16/600 SuperdexTM 200) equilibrated in 0.1% DDM-containing buffer A. 1-ml fractions were collected and analysed by SDS-PAGE. Pure fractions were pooled and concentrated to 1 mg/ml (50000 MWCO concentrator, Vivaspin™ 20). […] PgpB was purified as previously described.
Chain of BacA (P60932 whole entry): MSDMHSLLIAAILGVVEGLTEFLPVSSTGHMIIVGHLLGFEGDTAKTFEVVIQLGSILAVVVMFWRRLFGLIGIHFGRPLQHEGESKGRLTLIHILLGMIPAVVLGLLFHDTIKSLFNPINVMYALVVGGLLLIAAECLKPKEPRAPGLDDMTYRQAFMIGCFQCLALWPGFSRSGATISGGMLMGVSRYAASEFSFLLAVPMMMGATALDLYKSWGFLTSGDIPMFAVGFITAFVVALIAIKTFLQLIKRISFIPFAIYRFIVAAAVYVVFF
The C55-PP phosphatase activity of BacA was assessed by measuring the percentage of transformation of [^14C]C55-PP into [^14C]C55-P upon incubation with BacA by TLC analysis. The butanol from the [^14C]C55-PP solution was dried under vacuum so as to evaporate the organic solvent and to recover C55-PP as a lipidic film. […] The compounds (1 µL) were added to the reaction mixture at 100 µM final concentration (at the first instance) from a 2 mM stock solution prepared in DMSO. A blank experiment without compound, but with 1 µL DMSO, was performed in order to determine the 100 % of BacA activity to which all other experiments were compared. BacA (2 µL) was then added at a final concentration of 5 nM from a dilution solution prepared in the reaction buffer. The concentration of enzyme was fixed so that the consumption of substrate at the end of the incubation time in the control was less than 30%. The reaction mixture was incubated for 10 min at 37 °C and the catalysis was stopped by freezing in liquid nitrogen. The radiolabelled substrate (C55-PP) and product (C55-P) were separated by TLC on pre-coated plates of silica gel 60 (Merck) using propanol/ammonium hydroxide/water (6:3:1, v/v/v) as a mobile phase. The radioactive spots were located and quantified with a radioactivity scanner. […] Dose-response curves were plotted as BacA residual activity (RA) versus the logarithms of inhibitor concentration. […] Reported values are the average of at least three experiments. The C55-PP phosphatase activity of PgpB was measured as described for BacA.
The activity of BacA was then investigated by monitoring the initial velocity of [^14C]C55-PP dephosphorylation, as described in Material and methods section. […] The compounds were prepared as 2 mM DMSO stock solutions, resulting in a 5 % final concentration of DMSO in the reaction mixture.

The next assay relates to S. pneumoniae R6. As to the kind of experiment: Double-disc diffusion test with bacitracin. Conditions: 130 µg bacitracin disc alone. The class given is cell-based. Here is the method: To evaluate the antibacterial activity of the compounds per se or in combination with bacitracin, against S. aureus RN4220 and S. pneumoniae R6 strains, disc diffusion method was used according to the CLSI guidelines. Bacterial suspensions equivalent to 10^8 CFU/ml were prepared in 5 ml BHI broth. A BHI-agar plate (for S. aureus) or Colombia-agar plate supplemented with 5% Horse Blood (for S. pneumoniae) were then flooded with a bacterial suspension for 1 min to allow the bacteria to sediment before removing the excess of medium. The commercial discs loaded with 130 µg of bacitracin (Biorad) was positioned on top of the bacterial lawn at distances of 10 mm (center to center) from another sterile and blank disc, which was then loaded with 7 µL of a compound solution (50 µg). The plates were incubated at 37 °C for 24 h and the diameter of the growth inhibition zone was measured and a photo of the plates was acquired using a ChemiDoc™ MP System.
Figure S3. Test of antibacterial activity of BacA inhibitors against S. aureus RN4220 (A) and S. pneumonia R6 (B) strains. Bacitracin (130 µg)- and compound (50 µg)-loaded discs were positioned at 10 mm of distance on top of a bacterial lawn. The plates were incubated overnight at 37 °C. These images are representative of three independent tests. […]
For orientation: Agar diffusion results depend on both activity and mobility in agar.

Assay [2] relates to BWbacA-singleΔtolC strain carrying the empty vector (pTRCH30). Description: Growth inhibition, control strain carrying the empty vector. The class given is cell-based, E. coli. The note with it: 500 µM compound. As to the method: as §2
(§3) To further assess the specificity of compounds 3 and 5 with respect to BacA, they were tested against the strain depleted of both TolC and PAP2 but overexpressing an ectopic copy of the bacA gene on a plasmid.

For assay [3], the system named is E. coli BW25113 wild type strain. Description: Growth inhibition in 2YT liquid medium. The class given is cell-based. Conditions: 500 µM compound. Here is the method: as §2
(§4) Two compounds, 3 and 5, were assessed for antibacterial activity using the broth microdilution method against the E. coli BW25113 wild type strain. […] Considering the plurality of C55-PP phosphatases in E. coli, the inhibition of BacA may not induce growth inhibition as long as the PAP2 enzymes (PgpB, YbjG, and LpxT) are functional. Consequently, compounds 3 and 5 were tested against a BW25113 variant in which the PAP2 enzymes were depleted (DMEG9 strain, alias BWbacA-single). […]

The subject of assay [4] is BWbacA-singleΔtolC strain overexpressing an ectopic copy of the bacA gene on a plasmid. As to the kind of experiment: Growth inhibition upon bacA overexpression. The class given is cell-based, E. coli. The note with it: bacA overexpressed in trans; 500 µM compound. Here is the method: as §2, §3
The test system of assay [5] is DMEG9 strain, alias BWbacA-single. Description: Growth inhibition in 2YT liquid medium. The class given is cell-based, E. coli. The note with it: PAP2-depleted DMEG9; 500 µM compound. Here is the method:
as §2, §4

The test system of the next assay is BWΔbacAΔtolC strain. Description: Growth inhibition in 2YT liquid medium. The class given is cell-based, E. coli. Conditions: BacA and TolC depleted; 500 µM compound. As to the method: as §1
For compounds displaying inhibitory activity on BacA catalysis, their antibacterial activity was tested on different E. coli strains by monitoring bacterial growth in the presence of compounds (125, 250 and 500 µM). One colony was cultured in 10 ml of 2YT liquid medium and incubated at 37℃ for 6 h. The absorbance of the culture at 600 nm (A600) was measured to prepare a bacterial suspension in 2YT liquid medium at 15.10^6 CFU/ml (A600 = 1 corresponds to 3.10^8 CFU/ml). […] The plates were incubated at 37℃ overnight with A600 measurements every 10 min using a Tecan F200 PRO microplate reader (iControl software). […]

`O=C(O)c1csc(S(=O)(=O)Nc2ccc(SCc3cccnc3)cc2)c1` [Compound 1, 5-{p-[(3-pyridyl)methylthio]phenylaminosulfonyl}-3-thenoic acid]: the “class of antibacterial activity (Figure S2)” value (“class” for short) in assay [1] was “without any antibacterial activity whatever the strain”. Further, the MIC in assay [1] (Escherichia coli, 125, 250 and 500 µM tested) is greater than 500 µM; in assay [1] (Escherichia coli, class symbol ND), greater than 500 µM. For the same molecule, the growth inhibition result in the assay with BWΔtolC strain (500 µM compound) was “no growth inhibition”. The Off-target activity result in the assay on BWΔtolC strain is given as “No”.
In the case of `CC(C)Oc1ccc(NS(=O)(=O)c2cc(C(=O)O)cs2)cc1` [Compound 7], on BacA, the IC50 came to 366 ± 73 µM and the “BacA RA (%)” value amounted to 80 ±10%. In addition, in [1], the MIC amounted to 170 µg/mL, the “class” value is “strong specificity towards BacA” and the growth inhibition result is listed as “total growth inhibition”. Besides, in [1] (125, 250 and 500 µM tested), the MIC came out at 500 µM. In the assay on BWΔtolC strain (500 µM compound), the growth inhibition result is “no effect”. Also, the Off-target activity result with BWΔtolC strain is “No”.
Take bacitracin [reference compound]: the “inhibition zone of bacitracin” value in the assay with S. pneumoniae R6 was 7.5 mm.
On to `O=C(O)c1csc(S(=O)(=O)Nc2ccc3[nH]c(=O)sc3c2)c1` [Compound 5], for which the growth inhibition result in assay [2] was “did not display any antibacterial activity”; in [3], “No growth inhibition”; in assay [1], “no growth inhibition”; with BWΔtolC strain (500 µM compound), “did not lead to any growth inhibition; also recorded: no growth inhibition”; in assay [5], “no growth inhibition”. This molecule registered an IC50 against BacA of 338 ± 35 µM. Further, the “BacA RA (%)” value on BacA is on record as 76 ± 13%. For the same molecule, the MIC is reported as greater than 500 µM in assay [1] (125, 250 and 500 µM tested); “ND (no growth inhibition detected up to 500 µM compound)” in assay [1] (class symbol ND). For the same molecule, the “class” value in assay [1] is given as “without any antibacterial activity whatever the strain”. Besides, the “growth inhibition upon bacA overexpression” value in assay [4] is “did not display any antibacterial activity”. In addition, the Off-target activity result with BWΔtolC strain is listed as “No”. Moreover, in the assay with BWΔbacAΔtolC strain, the “growth inhibition (BacA-independent activity)” value was “did not display any antibacterial activity”.
With `Cc1ccc(NS(=O)(=O)c2cc(C(=O)O)cs2)cc1C` [Compound 2], at BacA, the IC50 amounted to 132 ± 22 µM and the “BacA RA (%)” value stood at 66± 17%. Also, the “nature of the inhibition (compound versus substrate competition kinetics)” value at BacA (25 to 300 µM substrate, 200 µM compound) is on record as “non-competitive inhibitors”. In assay [1], the MIC was determined as 155 µg/mL, the “class” value is given as “strong specificity towards BacA” and the growth inhibition entry is “total growth inhibition”. This molecule also had an MIC in assay [1] (125, 250 and 500 µM tested) of 500 µM. Also, the growth inhibition entry with BWΔtolC strain (500 µM compound) is “no effect”. In addition, the Off-target activity result with BWΔtolC strain was “No”.
In the case of `O=C(O)c1csc(S(=O)(=O)Nc2ccc3ccccc3c2)c1` [Compound 6], at BacA, the IC50 worked out at 151 ± 13 µM and the “BacA RA (%)” value was 70 ± 18%. Also, in assay [1], the minimum inhibitory concentration (MIC) amounted to 83 µg/mL, the “class” value is “antibacterial activity on both strains” and the growth inhibition result is “total growth inhibition”. In addition, the MIC in assay [1] (125, 250 and 500 µM tested) was 250 µM. Moreover, the growth inhibition result in the assay with BWΔtolC strain (250 µM compound) was “no effect”. The growth inhibition result in the assay with BWΔtolC strain (500 µM compound) is “moderate inhibition”. In addition, the Off-target activity result in the assay on BWΔtolC strain was “Yes”.
